## CC(C)CC1CC1c1ccccc1NC(=O)c1cn(C)cc1C(F)(F)F (stereo not shown) [Compound 3.17, 1-methyl-4-trifluoromethyl-1H-pyrrole-3-carboxylic acid [2-(2-isobutyl-cyclopropyl)phenyl]amide]
  melting point: 61 to 65 °C

Reference: patent US7951752B2, “O-cyclopropyl-carboxanilides and their use as fungicides” (Syngenta Crop Protection, Inc., priority 2002, dated 2011)
